Counter-ions that a name gives are not always drawn. Like-named read-outs stand apart in the source and are kept apart here.

For data set [1] the following is noted: 60±2° C., 75±5% relative humidity. Here is the method:
The assay of the acid addition salt of clopidogrel was measured using HPLC condition A, the amount of hydrolyzed impurities of the acid addition salt of clopidogrel was measured using HPLC condition B, the optical purity of the acid addition salt of clopidogrel (i.e., the amount of the levorotatory isomers) was measured using the HPLC condition C, and the water content of the acid addition salt of clopidogrel was measured with a Karl-Fisher titrator.

The test system of data set [2] is platelet aggregation induced by adenosine-diphosphate (ADP). The note with it: ADP (5 μM), PRP of female Sprague-Dawley rats after oral dose corresponding to clopidogrel 15.3 mg/kg. Here is the method: (§1) The pharmacological activities for preventing platelet aggregation of the clopidogrel hydrogen sulfate obtained in Comparative Example 1, and the inventive clopidogrel 2-naphthalenesulfonate and clopidogrel 1,5-naphthalenedisulfonate monohydrate obtained in Examples 1 and 2, respectively, were tested using rat blood in accordance with the standard method (see Born G.V.R & Cross, J. Physiol. 168: 178-195, 1963; 0. Takahashi, Food & Chemical Toxicology 38: 203-218, 2000). The platelet aggregation inhibition test was performed ex vivo, and the inhibitory activities of the acid addition salts against platelets aggregation induced by adenosine-diphosphate (ADP), collagen and thrombin, respectively, were measured.
(§2) Twenty 11 to 12-weeks old female Sprague-Dawley rats (average weight: 270±25 g) were divided into four groups each consisting of five rats, and each group of rats was orally administered with 20.0 mg/kg of clopidogrel hydrogen sulfate (15.3 mg/kg as clopidogrel), 25.2 mg/kg of clopidogrel 2-naphthalenesulfonate, and 22.6 mg/kg of clopidogrel 1,5-naphthalenedisulfonate monohydrate dissolved in 1% DMSO based on a volume of 10 ml/kg body weight. For the control group of rats, only 1% DMSO solution was administered.
(§3) Blood samples were taken using a syringe pre-charged with 3.8% citric acid solution from the abdominal artery of the animals under anesthesia, and the blood samples were centrifuged at 4° C. and 1,000 rpm for 10 minutes to separate platelet-rich plasma (PRP). The separated plasma was further centrifuged four times at 4° C. and 1,000 rpm to obtain PRP for test. A portion of PRP was further centrifuged at 4° C. and 3,000 rpm for 10 minutes to prepare precipitated platelet, and the precipitated platelet was washed with a buffer (138 mM NaCl, 2.7 mM KCl, 12 mM NaHCO3, 0.36 mM NaH2PO4, 5.5 mM glucose, 1 mM EDTA: pH 6.5). Then, the platelet was suspended in a buffer (138 mM NaCl, 2.7 mM KCl, 12 mM NaHCO3, 0.36 mM NaH2PO4, 0.49 mM MgCl2, 0.25% gelatin, 5.5 mM glucose: pH 7.4) such that the optical density (OD) value at 260 nm corresponded to a number of platelet which is about 1×10^8.
(§4) To induce platelet aggregation, ADP standard solution was added to the above PRP to determine the concentration until the final concentration of the ADP became 5 μM. Further, a collagen standard solution (final concentration 5 μg/ml) and thrombin standard solution (final concentration 0.1 U/ml) was added to the above washing platelet solution to induce platelet aggregation. Each of the samples was stirred at 37° C. and 900 rpm to measure the amount of platelet aggregation using a aggregometer (Chrono-log Platelet Aggregometer). The degrees of platelet aggregation and inhibition were calculated using formulae 1 and 2, and the results are shown in Table 8. Degree of aggregation (%)=[(measured aggregation height)/(aggregation height when 100% was aggregated)]×100 <Formula 1> Degree of inhibition (%)=[(aggregation height of control group)−(aggregation height of drug administration group)]/(aggregation height of control group)×100 <Formula 2>

The test system of data set [3] is platelet aggregation induced by collagen. The note with it: Collagen (5 μg/ml), washed platelets of female Sprague-Dawley rats after oral dose corresponding to clopidogrel 15.3 mg/kg. How it is done: as §1, §2, §3, §4
Data set [4] deals with platelet aggregation induced by thrombin. As to conditions: Thrombin (0.1 U/ml), washed platelets of female Sprague-Dawley rats after oral dose corresponding to clopidogrel 15.3 mg/kg. Here is the method:
as §1, §2, §3, §4

The procedure of data set [5]: Effects on the bleeding time of the conventional clopidogrel hydrogen sulfate obtained in Comparative Example 1 and the inventive clopidogrel 2-naphthalenesulfonate and clopidogrel 1,5-naphthalenedisulfonate monohydrate obtained in Examples 1 and 2, respectively, were tested using rat in accordance with the standard method (see Dejana E & Villa S, Thromb. Haemostas. 48: 108-111, 1982). The bleeding time is an index representing the extent of thrombus formed by platelet aggregation and tests were performed using male and female rats.
Forty 11 to 12-weeks old male and female Sprague-Dawley rats (average weight: 270±25 g) were divided into four groups each consisting of five male rats and five female rats, and the male rats of the first group were each orally administered with 5.0 mg/kg of clopidogrel hydrogen sulfate (3.83 mg/kg as clopidogrel) and the female rats of the first group were each orally administered with 2.5 mg/kg (1.92 mg/kg as clopidogrel). For the second group, the male and female rats were orally each administered with 6.30 mg/kg and 3.15 mg/kg of clopidogrel 2-naphthalenesulfonate, respectively, and for the third group, the male and female rats were each orally administered with 5.65 mg/kg and 2.83 mg/kg of clopidogrel 1,5-naphthalenedisulfonate monohydrate, respectively. The drug was orally administered in the form of 1% DMSO solution in an amount in volume of 10 ml/kg body weight. As a comparison, only 1% DMSO solution was administered to the last group of rats.
After fixing an unanesthetized rat with an experimental holder, the tail of the rat was pierced at a position of 1.5 cm from the end of tail using a need of 26 G×½, 0.45×13 mm at a depth of 1 mm. The time of bleeding to cease was measured with absorbing the bleeding blood on a filter paper every 10 second.

The mark [6] stands for this setting: Female Sprague-Dawley rats, oral dose corresponding to 1.92 mg/kg of clopidogrel.
[7] abbreviates: Male Sprague-Dawley rats, oral dose corresponding to 3.83 mg/kg of clopidogrel.

As to `COC(=O)[C@H](c1ccccc1Cl)N1CCc2sccc2C1` [Hydrogen sulfate, Clopidogrel Hydrogen Sulfate, reference compound], the Water content in data set [1] (0 day) amounted to 0.1%; in data set [1] (7 days), 0.1%; in data set [1] (14 days), 0.1%; in data set [1] (21 days), 0.4%; in data set [1] (28 days), 2.0%; in data set [1] (35 days), 4.8%. Further, the values for the Aggregation ratio in data set [2], in data set [3] and in data set [4] were 5.00 ± 0.60%, 12.19 ± 1.70% and 27.22 ± 1.52%, respectively. Moreover, the Inhibition ratio is given as 86.1% in data set [2], 84.8% in data set [3] and 67.1% in data set [4]. Also, the figures for the Bleeding time in data set [5] (setting [6]) and in data set [5] (setting [7]) were 127.5 ± 10.6 s and 135 ± 8.7 s, respectively.

Consider `COC(=O)[C@H](c1ccccc1Cl)N1CCc2sccc2C1` [2-Naphthalenesulfonate, Clopidogrel 2-naphthalenesulfonate], for which the Water content in data set [1] (0 day), in data set [1] (7 days), in data set [1] (14 days), in data set [1] (21 days), in data set [1] (28 days) and in data set [1] (35 days) was 0.1% throughout. Moreover, the Aggregation ratio in data set [2] is listed as 2.94 ± 0.21%; in data set [3] it was 1.88 ± 0.25%; in data set [4], 15.00 ± 1.71%. In addition, the Inhibition ratio in data set [2] came out at 91.8%; in data set [3], 97.9%; in data set [4], 81.9%. Also, the Bleeding time came out at 157 ± 10.6 s in data set [5] (setting [6]) and 190 ± 5.0 s in data set [5] (setting [7]).

For the compound `COC(=O)[C@H](c1ccccc1Cl)N1CCc2sccc2C1` [1,5-Naphthalenedisulfonate monohydrate, Clopidogrel 1,5-naphthalenedisulfonate Monohydrate], the Water content in data set [1] (0 day, Monohydrate) is 1.8%; in data set [1] (7 days, Monohydrate) it was 1.8%; in data set [1] (14 days, Monohydrate), 1.9%; in data set [1] (21 days, Monohydrate) it was 1.9%; in data set [1] (28 days, Monohydrate) it was 1.8%; in data set [1] (35 days, Monohydrate) it was 1.9%. Moreover, the results for the Aggregation ratio in data set [2] (Monohydrate), in data set [3] (Monohydrate) and in data set [4] (Monohydrate) were 4.12 ± 0.14%, 3.75 ± 0.40% and 23.61 ± 1.43%, respectively. For the same compound, the Inhibition ratio came to 88.5% in data set [2] (Monohydrate), 95.3% in data set [3] (Monohydrate) and 71.5% in data set [4] (Monohydrate). In addition, the Bleeding time in data set [5] (Female Sprague-Dawley rats, oral dose corresponding to 1.92 mg/kg of clopidogrel, Monohydrate) was 152.5 ± 3.5 s; in data set [5] (Male Sprague-Dawley rats, oral dose corresponding to 3.83 mg/kg of clopidogrel, Monohydrate), 163 ± 5.8 s.

For the origin of these results see patent US7470707B2, “Crystalline monohydrate clopidogrel naphthalenedisulfonate and process of preparation” (Hanmi Pharm. Co., Ltd, priority 2004, dated 2008).
